Experimental data as given in patent US7052850B2, “Isolated human EDG-4 receptor” (priority 1997, dated 2006).

Legend:
Type in all cases: cell-based
EDG-6 = biological target: T1, EDG-6 (Homo sapiens, UniProt Q9HBW0); assay: AP-1 reporter in 293-EBNA cells, EDG-6; conditions: 10 μM LPA
T1 construct: expressed in transfected cells; host or cells: 293-EBNA
Excerpt: LPA, like S1P, is abundant in serum, but not plasma. Moreover, LPA is produced as a consequence of phospholipase A2 with or without the contribution of phospholipase D (depending on the phospholipid substrate). […] To date we have identified three subtypes of edg receptors that respond to LPA as an agonist. These are EDG-2, […] (referred to also as LPA1, LPA2 and LPA3, respectively (Chun, J, Contos, JJA and Munroe, DG. 1998. A growing family of receptor genes for lysophophatidid acid (LPA) and other lyso-phospholipids. Cell Biochem Biophys (in press)). The EDG-5 receptor is set out in co-pending U.S. application Ser. No. 08/997,803 to MUNROE et al., incorporated herein to reference and the amino acid sequence and cDNA sequence for the EDG-6 receptor is set out in FIGS. 21 and 22, respectively. To determine whether these receptors might mediate inflammatory responses, each was cotransfected separately with SRE, NF-κB or AP-1 reporter genes. […] This transcription factor, like NF-κB has been implicated in inflammatory and neoplastic signal transduction, though the gene targets of its action are largely distinct from those of NF-κB (Adcock I M. 1997. Transcription factors as activators of gene transcription; AP-1 and NF-κB. Monaldi Arch Chest Dis 52:178–186. Review). […]

human EDG-5 = biological target: T2, human EDG-5 (Homo sapiens, UniProt Q9UBY5); assay: NF-κB luciferase reporter in 293-EBNA cells, human EDG-5; conditions: 10 μM LPA overnight
T2 construct: expressed in transfected cells; host or cells: 293-EBNA
T2 sequence (Q9UBY5 1-353): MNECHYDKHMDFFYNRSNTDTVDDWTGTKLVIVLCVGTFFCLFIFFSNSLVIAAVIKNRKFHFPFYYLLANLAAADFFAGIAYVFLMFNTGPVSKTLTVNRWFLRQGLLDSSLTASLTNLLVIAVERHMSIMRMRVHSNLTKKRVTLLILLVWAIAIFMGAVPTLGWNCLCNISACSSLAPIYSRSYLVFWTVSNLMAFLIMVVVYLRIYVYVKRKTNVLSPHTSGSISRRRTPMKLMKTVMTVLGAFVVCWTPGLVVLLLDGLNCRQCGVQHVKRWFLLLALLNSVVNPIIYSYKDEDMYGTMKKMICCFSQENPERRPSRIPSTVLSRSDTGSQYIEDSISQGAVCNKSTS
Experimental: The above protocol for assay 1 was followed except for the following changes: • 1) 100 mm plates of 293-EBNA with a confluency of ˜80% were used for transfection. • 2) 3 μg NFκB-tk-p4Luc reporter DNA and 3 μg pC3-hedg1, pC3-hedg 3, pC3-redg4, pC3-hedg5 or pcDNA3 DNA was diluted in 240 μl OPTI-MEM (Gibco; Cat. 31985-062) • 3) 22 μl lipofectamine (Gibco; Cat. 1 8324-020) was diluted in 240 μl OPTI-MEM. • 4) The 293-EBNA plates were washed once with PBS and 7 ml OPTI-MEM was added to each plate. • 5) DNA/lipofectamine mixture was added to each plate of 293-EBNA cells. The plates were left for 4 hrs at 37° C. in a 5% CO2 incubator. Day 2: • 1) 0.01×10^6 cells were plated per well of 96-well Blackview plate coated with polyD-lysine. No cells were plated in the outside wells of the 96-well plate. Day 3: The following treatments were used for all transections:
293-EBNA cells were grown, lipofected in monolayer cultures, and pretreated as described above for Example 11, assay #1, except that NF-κB and AP-1 reporter-transfected cells were preteated for 6 hr in medium containing 0.5% […], then treated overnight in the same medium with or without 10 μM LPA.

EDG-1 = EDG-1 (Homo sapiens, UniProt P21453); assay: SRE luciferase reporter (2XSREtk-p4Luc-zeo) in 293-EBNA cells, EDG-1; conditions: Assay 3; 3 μM; 6 hours
EDG-1, sequence (P21453 whole entry): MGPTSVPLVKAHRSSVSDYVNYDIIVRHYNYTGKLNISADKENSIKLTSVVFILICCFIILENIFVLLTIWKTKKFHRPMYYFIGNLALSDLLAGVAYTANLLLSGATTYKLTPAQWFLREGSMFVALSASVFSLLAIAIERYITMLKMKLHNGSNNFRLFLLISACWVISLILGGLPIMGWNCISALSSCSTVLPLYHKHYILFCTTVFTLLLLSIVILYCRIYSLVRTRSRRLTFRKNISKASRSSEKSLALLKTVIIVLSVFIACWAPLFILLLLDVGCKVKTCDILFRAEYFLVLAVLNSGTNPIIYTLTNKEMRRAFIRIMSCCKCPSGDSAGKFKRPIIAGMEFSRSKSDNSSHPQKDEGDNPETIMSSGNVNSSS
Experimental: The protocol described in Example 11 for Assay 1 was allowed except for the following changes: • 1) 100 mm plates of 293-EBNA ith a confluency of ˜80% were used for transfection, • 2) SRE Cotransfection: 0.5 μg of 2XSREtk-p4Luc-zeo reporter DNA and 3.5 μg pcDNA3, EDG-1, EDG-3 pC3-hE3P2, different from the clone used in Assay 2 of Example 11) or the newly cloned human EDG-4 (pC3-hedg4#36); NF-κB Cotransfection: 2 μg 6XNFκBtk-p4LUc-zeo reporter DNA and 2.0 μg pcDNA3, EDG-1, EDG-3 (pC3-hE3HP2), or EDG-4 (pC3-hedg4#36). Expression plasmid and reporter plasmid DNA samples were combined and diluted in 750 μl of DMEM/F12 (serum free media) and 20 μl Plus Reagent (Lipofectamine Plus Kit, Life Technologies Cat. 109640-13), and incubated at room temperature for 15 min. • 3) 30 μl Lipofectamine Reagent (Lipofectamine Plus Kit) was diluted in 750 μl DMEM/F12. The diluted Lipofectamine was then combined with the DNA/Plus mixture and incubated at room temperature for 15 min. • 4) The 293-EBNA plates were washed once with PBS and 5 ml DMEM/F12 was added to each plate. • 5) DNA/Plus/Lipofectamine mixture was added to each plate of 293-EBNA cells. […]

T1 sequence (Q9HBW0 with tags, fused parts or gaps): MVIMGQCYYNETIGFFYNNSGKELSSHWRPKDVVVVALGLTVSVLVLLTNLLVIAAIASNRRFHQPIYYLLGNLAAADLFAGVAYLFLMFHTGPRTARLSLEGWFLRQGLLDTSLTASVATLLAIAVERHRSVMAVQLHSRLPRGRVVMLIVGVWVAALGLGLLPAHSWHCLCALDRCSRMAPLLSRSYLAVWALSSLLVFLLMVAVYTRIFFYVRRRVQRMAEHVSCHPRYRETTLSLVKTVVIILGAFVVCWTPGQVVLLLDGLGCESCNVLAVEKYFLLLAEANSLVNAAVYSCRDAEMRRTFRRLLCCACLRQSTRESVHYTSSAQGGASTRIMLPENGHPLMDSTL

Molecule | induction of the AP-1 reporter (EDG-6) | activation of the NF-κB reporter (human EDG-5) | increase in luciferase activity (SRE reporter) (EDG-1) [fold]
lysophosphatidic acid [LPA] | strongly induced | 3–4 fold | 
CCCCCCCCCCCCC/C=C/[C@@H](O)[C@@H](N)COP(=O)(O)O [S1P, sphingosine 1-phosphate] |  |  | 8
